Measurements published in ChEMBL document CHEMBL1146091, “Benzoylphenylurea sulfur analogues with potent antitumor activity” (J Med Chem, 2006).

Legend:
[1] = tested on: MIA PaCa-2; test: Cytotoxicity against human Miapaca2 cell line by MTT assay; type: functional, cell-based
[2] = tested on: ASPC1; test: Cytotoxicity against human ASPC1 cell line by MTT assay; type: functional, cell-based
[3] = tested on: Panc203; test: Cytotoxicity against human Panc203 cell line by MTT assay; type: functional, cell-based
[4] = tested on: PANC-1; test: Cytotoxicity against human Panc1 cell line by MTT assay; type: functional, cell-based
[5] = tested on: Panc1005; test: Cytotoxicity against human Panc1005 cell line by MTT assay; type: functional, cell-based
[6] = tested on: Hs 766; test: Cytotoxicity against human HS766 cell line by MTT assay; type: functional, cell-based
[7] = tested on: LNCaP; test: Cytotoxicity against human LnCaP cell line by MTT assay; type: functional, cell-based
[8] = tested on: CWR22R; test: Cytotoxicity against human CWR22R cell line by MTT assay; type: functional, cell-based; conditions: 22Rv1
[9] = tested on: LAPC4; test: Cytotoxicity against human LAPC4 cell line by MTT assay; type: functional, cell-based
[10] = tested on: Panc430; test: Cytotoxicity against human Panc430 cell line by MTT assay; type: functional, cell-based
[11] = molecular target: Tubulin; test: Inhibition of tubulin polymerization; type: protein-complex assay, Homo sapiens
[12] = molecular target: Tubulin (Homo sapiens) (UniProt P68371+Q9H4B7+P0DPH7+P68366+Q13509+Q71U36+P04350+Q3ZCM7+P07437+P68363+Q9BQE3+Q6PEY2+Q13885+Q9BVA1+Q9BUF5); test: Inhibition of [3H]colchicine binding to tubulin at 5 uM; type: protein-complex assay
[13] = tested on: MCF7; test: Induction of apoptosis in human MCF7 cell line at 100 nM after 48 hrs; type: functional
[14] = tested on: MCF7; test: Induction of apoptosis in human MCF7 cell line at 30 nM after 48 hrs; type: functional
[15] = tested on: MCF7; test: Induction of apoptosis in human MCF7 cell line at 10 nM after 48 hrs; type: functional

Compound O=C(NC(=O)c1ccccc1[N+](=O)[O-])Nc1ccc(S(=O)(=O)c2ncc(Br)cn2)cc1 has an IC50 [1] of 6100 nM, an IC50 [2] greater than 10000 nM and an IC50 [3] greater than 10000 nM. For the same compound, the IC50 [4] was greater than 10000 nM, the IC50 [5] was greater than 10000 nM and the IC50 [6] was greater than 10000 nM. It also gave an IC50 [7] of 500 nM, an IC50 [8] greater than 10000 nM and an IC50 [9] of 4000 nM. For the same compound, the IC50 [10] was greater than 10000 nM.

O=C(NC(=O)c1ccccc1)Nc1ccc(Sc2ncc(Br)cn2)cc1 gave an IC50 [1] of 5000 nM, an IC50 [2] greater than 10000 nM and an IC50 [3] of 7500 nM. It also gave an IC50 [4] greater than 10000 nM, an IC50 [5] greater than 10000 nM and an IC50 [6] of 5500 nM. For the same compound, the IC50 [10] was 2000 nM.

Compound Nc1ccccc1C(=O)NC(=O)Nc1ccc(Sc2ncccn2)cc1 has an IC50 [1] of 7000 nM, an IC50 [2] of 6000 nM and an IC50 [3] of 5500 nM. For the same compound, the IC50 [4] was 7500 nM, the IC50 [5] was greater than 10000 nM and the IC50 [6] was 8000 nM. It also gave an IC50 [10] of 6500 nM.

With O=C(NC(=O)c1ccccc1[N+](=O)[O-])Nc1ccc(Sc2ncccn2)cc1 the IC50 [7] was 500 nM, the IC50 [8] was 5000 nM and the IC50 [9] was 600 nM.

With O=C(NC(=O)c1ccccc1[N+](=O)[O-])Nc1ccc(Oc2ncc(Br)cn2)cc1 the IC50 [11] was 4700 nM, the IC50 [1] was 740 nM and the IC50 [2] was 770 nM. For the same compound, the IC50 [3] was greater than 10000 nM, the IC50 [4] was 680 nM and the IC50 [5] was greater than 10000 nM. The IC50 [6] was 470 nM, the IC50 [7] was 1000 nM and the IC50 [8] was 5000 nM. For the same compound, the IC50 [9] was 200 nM, the inhibition [12] was 21% and the IC50 [10] was 10000 nM.

In the case of Cc1cc(NC(=O)NC(=O)c2ccccc2N(C)C)ccc1Oc1ncc(Br)cn1, the Activity [13] is reported as 27.7%, the IC50 [1] is reported as 850 nM and the Activity [14] is reported as 19.5%. For the same compound, the IC50 [2] was 850 nM, the IC50 [3] was 950 nM and the IC50 [4] was 700 nM. For the same compound, the Activity [15] was 16.1%, the IC50 [5] was 5000 nM and the IC50 [6] was 1000 nM. It also gave an IC50 [7] of 500 nM, an IC50 [8] of 1000 nM and an IC50 [9] of 250 nM. For the same compound, the IC50 [10] was 800 nM.

Work on O=C(NC(=O)c1ccccc1[N+](=O)[O-])Nc1ccc([S+]([O-])c2ncc(Br)cn2)cc1 (configuration not stated) yielded an IC50 [1] of 8000 nM, an IC50 [2] of 2500 nM and an IC50 [3] of 5500 nM. The IC50 [4] was 6500 nM, the IC50 [5] was 5500 nM and the IC50 [6] was 6500 nM. It also gave an IC50 [10] of 5500 nM.

O=C(NC(=O)c1ccccc1[N+](=O)[O-])Nc1ccc(Sc2ncc(Br)cn2)cc1 gave an IC50 [11] of 2100 nM, an Activity [13] of 53.6% and an IC50 [1] of 86 nM. The Activity [14] was 51.2%, the IC50 [2] was 1000 nM and the IC50 [3] was 700 nM. For the same compound, the IC50 [4] was 85 nM, the Activity [15] was 29.7% and the IC50 [5] was 10000 nM. It also gave an IC50 [6] of 88 nM, an IC50 [7] of 50 nM and an IC50 [8] of 50 nM. The IC50 [9] was 50 nM, the inhibition [12] was 17% and the IC50 [10] was 90 nM.

For O=C(NC(=S)Nc1ccc(Sc2ncc(Br)cn2)cc1)c1ccccc1, the IC50 [1] was 10000 nM, the IC50 [2] was 10000 nM and the IC50 [3] was greater than 10000 nM. The IC50 [4] was 9500 nM, the IC50 [5] was greater than 10000 nM and the IC50 [6] was 8500 nM. For the same compound, the IC50 [7] was greater than 10000 nM, the IC50 [8] was greater than 10000 nM and the IC50 [9] was 6000 nM. For the same compound, the IC50 [10] was 7500 nM.

Nc1ccccc1C(=O)NC(=O)Nc1ccc(Oc2ncc(Br)cn2)cc1 showed an IC50 [11] of 36000 nM, an IC50 [1] of 920 nM and an IC50 [2] of 5200 nM. The IC50 [3] was greater than 10000 nM, the IC50 [4] was 3500 nM and the IC50 [5] was greater than 10000 nM. It also gave an IC50 [6] of 270 nM, an IC50 [7] of 750 nM and an IC50 [8] of 2000 nM. The IC50 [9] was 750 nM and the IC50 [10] was greater than 10000 nM.

Nc1ccccc1C(=O)NC(=O)Nc1ccc(Sc2ncc(Br)cn2)cc1 was tested, and the IC50 [11] was greater than 40000 nM, the IC50 [1] was 95 nM and the IC50 [2] was 450 nM. For the same compound, the IC50 [3] was 85 nM, the IC50 [4] was 90 nM and the IC50 [5] was 10000 nM. The IC50 [6] was 700 nM, the IC50 [7] was 500 nM and the IC50 [8] was 500 nM. The IC50 [9] was 100 nM and the IC50 [10] was 200 nM.

COc1cc([C@@H]2c3cc4c(cc3[C@H](O)[C@H]3COC(=O)[C@H]23)OCO4)cc(OC)c1OC was tested, and the inhibition [12] was 77%.
